According to the supplement of paper PMC4862054:

Assays:
[1] = tested on: HDQ-P1; assay: normalised viability (% of control), CellTiter-Blue; higher = more viable cells (100 = DMSO, 0 = benzethonium chloride kill control); conditions: 1 nM; incubation time: 72 h
In short: (§1)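 The reported quantity is normalised viability at a single listed concentration of the series. Compound in 5 µl medium was pre-dispensed into 384-well plates and 20 µl of breast cancer cell suspension was added for 72 h. A 2 h, 37 °C CellTiter-Blue step (2.5 µl) preceded fluorescence reading at 560/590 nm, and plates were normalised to vehicle (100) and a positive kill control (0).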

[2] = tested on: MFM-223; assay: as above; conditions: 1 nM; incubation time: 72 h
In short: as §1

[3] = tested on: BT-549; assay: as above; conditions: 1 nM; incubation time: 72 h
In short: as §1

[4] = tested on: CAL-51; assay: as above; conditions: 1 nM; incubation time: 72 h
In short: as §1

[5] = tested on: MDA-MB-231; assay: as above; conditions: 1 nM; incubation time: 72 h
In short: as §1

[6] = tested on: HCC1599; assay: as above; conditions: 1 nM; incubation time: 72 h
In short: as §1

[7] = tested on: MDA-MB-436; assay: as above; conditions: 1 nM; incubation time: 72 h
In short: as §1

[8] = tested on: MDA-MB-468; assay: as above; conditions: 1 nM; incubation time: 72 h
In short: as §1

[9] = tested on: DU-4475; assay: as above; conditions: 1 nM; incubation time: 72 h
In short: as §1

[10] = tested on: MDA-MB-453; assay: as above; conditions: 1 nM; incubation time: 72 h
In short: as §1

[11] = tested on: HCC1143; assay: as above; conditions: 1 nM; incubation time: 72 h
In short: as §1

[12] = tested on: CAL-120; assay: as above; conditions: 1 nM; incubation time: 72 h
In short: as §1

[13] = tested on: HCC1937; assay: as above; conditions: 1 nM; incubation time: 72 h
In short: as §1

[14] = tested on: SK-BR-3; assay: as above; conditions: 1 nM; incubation time: 72 h
In short: as §1

[15] = tested on: CAL-148; assay: as above; conditions: 1 nM; incubation time: 72 h
In short: as §1

[16] = tested on: Hs578T; assay: as above; conditions: 1 nM; incubation time: 72 h
In short: as §1

[17] = tested on: MDA-MB-231; assay: normalised viability (% of control), CellTiter-Blue; higher = more viable cells (about 100 = DMSO control); conditions: 100 nM; incubation time: 72 h
Protocol: (§2)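 DSRT, CellTiter-Blue viability, 72 h incubation. Signal is normalised to DMSO and benzethonium chloride controls. Value is the normalised response at dose 3.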

[18] = tested on: HCC1599; assay: as above; conditions: 100 nM; incubation time: 72 h
Protocol: as §2

[19] = tested on: MDA-MB-468; assay: as above; conditions: 100 nM; incubation time: 72 h
Protocol: as §2

[20] = tested on: MDA-MB-453; assay: as above; conditions: 10 nM; incubation time: 72 h
Protocol: as §2

[21] = tested on: HCC1143; assay: as above; conditions: 100 nM; incubation time: 72 h
Protocol: as §2

[22] = tested on: CAL-120; assay: as above; conditions: 100 nM; incubation time: 72 h
Protocol: as §2

[23] = tested on: HCC1937; assay: as above; conditions: 100 nM; incubation time: 72 h
Protocol: as §2

[24] = tested on: CAL-148; assay: as above; conditions: 10 nM; incubation time: 72 h
Protocol: as §2

[25] = tested on: HDQ-P1; assay: as above; conditions: 1000 nM; incubation time: 72 h
Protocol: (§3)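 DSRT, CellTiter-Blue viability, 72 h incubation. Signal is normalised to DMSO and benzethonium chloride controls. Value is the normalised response at dose 7.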

[26] = tested on: CAL-51; assay: as above; conditions: 1000 nM; incubation time: 72 h
Protocol: as §3

[27] = tested on: DU-4475; assay: as above; conditions: 1000 nM; incubation time: 72 h
Protocol: as §3

[28] = tested on: MDA-MB-453; assay: as above; conditions: 1000 nM; incubation time: 72 h
Protocol: as §3

[29] = tested on: CAL-85-1; assay: as above; conditions: 1000 nM; incubation time: 72 h
Protocol: as §3

[30] = tested on: CAL-148; assay: as above; conditions: 1000 nM; incubation time: 72 h
Protocol: as §3

SMILES | normalised viability [1] [%] | normalised viability [2] [%] | normalised viability [3] [%] | normalised viability [4] [%] | normalised viability [5] [%] | normalised viability [6] [%] | normalised viability [7] [%] | normalised viability [8] [%] | normalised viability [9] [%] | normalised viability [10] [%] | normalised viability [11] [%] | normalised viability [12] [%] | normalised viability [13] [%] | normalised viability [14] [%] | normalised viability [15] [%] | normalised viability [16] [%] | normalised viability [17] [%] | normalised viability [18] [%] | normalised viability [19] [%] | normalised viability [20] [%] | normalised viability [21] [%] | normalised viability [22] [%] | normalised viability [23] [%] | normalised viability [24] [%] | normalised viability [25] [%] | normalised viability [26] [%] | normalised viability [27] [%] | normalised viability [28] [%] | normalised viability [29] [%] | normalised viability [30] [%]
CC1=C(/C=C/C(C)=C/C=C/C(C)=C/C(=O)O)C(C)(C)CCC1 [Tretinoin] | 114 | 98 | 98.4 | 93.5 | 97.2 | 99.3 | 90.4 | 109 | 91.8 | 100 | 94.9 | 86.9 | 117 | 97.7 | 103 | 116 | 94 | 92.2 | 115 | 92.9 | 86.2 | 77.7 | 98.9 | 92.1 | 109 | 93.2 | 102 | 117 | 82.2 | 81.2
C1CN1c1nc(N2CC2)nc(N2CC2)n1 [Triethylenemelamine] | 109 | 100 | 107 | 101 | 96.2 | 76.4 | 98.5 | 102 | 104 | 104 | 101 | 103 | 86.6 | 99 | 108 | 108 | 115 | 106 | 101 | 96.6 | 105 | 109 | 88.5 | 103 | 102 | 104 | 102 | 94.4 | 98.4 | 110
Oc1ncc(N(CCCl)CCCl)c(O)n1 [Uracil mustard] | 110 | 97.4 | 101 | 90.7 | 99.4 | 94.5 | 96.3 | 104 | 88.3 | 99.1 | 95.7 | 82.3 | 101 | 97.3 | 103 | 109 | 100 | 83.5 | 108 | 107 | 84.8 | 87.7 | 105 | 95.8 | 117 | 89.6 | 96.2 | 101 | 93.8 | 111
CCCCC(=O)OCC(=O)[C@]1(O)Cc2c(O)c3c(c(O)c2[C@@H](O[C@H]2C[C@H](NC(=O)C(F)(F)F)[C@H](O)[C@H](C)O2)C1)C(=O)c1c(OC)cccc1C3=O [Valrubicin] | 96.8 | 90.3 | 107 | 89.7 | 79.7 | 75.7 | 106 | 84.3 | 93.9 | 97.6 | 86.5 | 92.9 | 81.6 | 85.5 | 88.8 | 103 | 77 | 92.2 | 92.1 | 103 | 86.4 | 77.3 | 73.7 | 91.6 | 58 | 23.1 | 2.39 | 55.7 | 61.3 | 2.49
CCCS(=O)(=O)Nc1ccc(F)c(C(=O)c2c[nH]c3ncc(-c4ccc(Cl)cc4)cc23)c1F [Vemurafenib] | 96.3 | 90.7 | 114 | 94.4 | 113 | 83.4 | 91.1 | 110 | 88 | 89.8 | 93.8 | 95.3 | 119 | 92.2 | 98.4 | 112 | 94.6 | 98 | 104 | 107 | 80.1 | 92.7 | 96.4 | 98.1 | 90.5 | 93.2 | 25.6 | 87.2 | 83.8 | 93.9
